Data published in PubChem BioAssay (NCI).
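Each compound was tested at five concentrations against cells in 96-well plates for 48 hours. Here, GI50 denotes the concentration required for 50% inhibition of growth. TGI is the concentration that stops growth completely.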

What was measured:
Assay in all cases: NCI-60 cell line screen, 48 h
[1] = tested on: NCI-H460 lung
[2] = tested on: OVCAR-3 ovarian
[3] = tested on: SF-539 CNS
[4] = tested on: HT29 colon
[5] = tested on: MCF7 breast
[6] = tested on: PC-3 prostate
[7] = tested on: BT-549 breast
[8] = tested on: OVCAR-4 ovarian
[9] = tested on: SN12C renal
[10] = tested on: UACC-257 melanoma

Structure (SMILES)	TGI [1]	TGI [2]	TGI [3]	TGI [4]	TGI [5]	TGI [6]	TGI [7]	TGI [8]	TGI [9]	TGI [10]	GI50 [1]	GI50 [2]	GI50 [3]	GI50 [4]	GI50 [5]	GI50 [6]	GI50 [7]	GI50 [8]	GI50 [9]	GI50 [10]
O=C1c2ccccc2C(=O)c2nn(N=P(CP(=Nn3nc4c(n3)C(=O)c3ccccc3C4=O)(c3ccccc3)c3ccccc3)(c3ccccc3)c3ccccc3)nc21	> 100 µM	> 100 µM	> 100 µM	> 100 µM	> 100 µM	> 100 µM	> 100 µM	> 100 µM	> 100 µM	> 100 µM										
COc1cc2c(cc1O)CCN(C)[C@H]2Cc1ccc(Oc2c(O)c(OC)cc3c2C[C@H]2c4c(c(OC)c(OC)c(OC)c4-3)CCN2C)cc1	7.65 µM	10.6 µM	11.5 µM	7.35 µM	10.7 µM	8.9 µM	11.8 µM	4.38 µM	10.7 µM	13.4 µM										
Cc1cn(CCOCCOC(=O)NC(CCCNC(N)=O)C(=O)O)c(=O)[nH]c1=O (configuration not stated)	> 100 µM	> 100 µM	> 100 µM	> 100 µM	> 100 µM	> 100 µM	> 100 µM	> 100 µM	> 100 µM	> 100 µM										
CC1=NN2C(=N)/C(=C/c3ccccc3)C(=O)N=C2S1	> 100 µM	> 100 µM	> 100 µM	> 100 µM	> 33.6 µM	> 100 µM	> 100 µM	> 100 µM	> 100 µM	> 100 µM										
Cc1ccc(/C=N\NC(=O)c2ccncc2)s1	> 100 µM	> 100 µM	> 100 µM	> 100 µM	> 100 µM	> 100 µM	> 100 µM	> 100 µM	> 100 µM	> 100 µM										
Clc1nc2c(C#Cc3ccccc3)ncnc2n1C1CCCCO1 (configuration not stated)	39.6 µM	30.4 µM	42.2 µM	27.6 µM	20.9 µM	43.2 µM	49.7 µM	35.9 µM	23 µM	41.1 µM										
CC1=CC[C@](C)(O)[C@@]2(C)CC[C@H]3C(=C(C)C)C(=O)C[C@]3(C)C[C@H]12		> 50 µM	> 50 µM	> 50 µM	> 50 µM	> 50 µM	> 50 µM	> 50 µM	> 50 µM	> 50 µM										
CC(C)(Cc1ccccc1)N1C(=O)N1C(C)(C)Cc1ccccc1	> 100 µM	> 100 µM	> 100 µM	32.9 µM	> 100 µM	> 100 µM	> 100 µM	> 100 µM	> 100 µM	> 100 µM										
CC(=O)O[C@H]1CCC2[C@@H]3CCC4NC(=O)C(C#N)C[C@]4(C)C3CC[C@@]21C (some centres not stated)	> 10 µM	> 10 µM	> 10 µM	> 10 µM	> 10 µM	> 10 µM	> 10 µM	> 10 µM	> 10 µM	> 10 µM										
COc1ccc(C2SCC(=O)N2NC(=O)C(C)Oc2ccc(Cl)cc2Cl)cc1 (configuration not stated)	> 100 µM	> 100 µM	35.9 µM	> 100 µM	> 100 µM	75.6 µM	52.8 µM	52.6 µM	> 100 µM	> 100 µM										
CC(C#N)N(CCc1ccccc1)C(=O)c1ccccc1 (configuration not stated)		> 100 µM	> 100 µM	> 100 µM	> 100 µM	> 100 µM	> 100 µM	> 100 µM	> 100 µM	> 100 µM										
COC(=O)c1cc(C)ccc1C1CN=NC12Cc1c(C)cc(C)cc1C2=O (configuration not stated)	42.7 µM	75.5 µM	32.7 µM	45.8 µM	69.1 µM	> 100 µM	69.3 µM	80 µM	> 100 µM	69.7 µM										
CC(C)(C)C(=O)N1CCN(C=O)C1=S	> 100 µM	> 100 µM	> 100 µM	> 100 µM	64.5 µM	> 100 µM	> 100 µM	> 100 µM	> 100 µM	> 100 µM										
CCN1CCCn2c(=O)[nH]c3cc(Br)cc1c32	> 100 µM	> 100 µM	> 100 µM	> 100 µM	> 100 µM	> 100 µM	> 100 µM	> 100 µM	> 100 µM	> 100 µM										
COc1cc2oc(-c3ccc4c(c3)OCO4)c(OC)c(=O)c2c(O)c1OC	> 50 µM	> 50 µM	> 50 µM	> 50 µM	> 50 µM	> 50 µM	> 50 µM	> 50 µM	> 50 µM	> 50 µM										
CC1CN=C(c2ccc(CN3CCC(C4CCN(Cc5ccc(C6=NCC(C)N6)cc5)CC4)CC3)cc2)N1 (configuration not stated)	37.3 µM	44.5 µM	37.7 µM	42.7 µM	37.4 µM	35.8 µM	> 100 µM	38.8 µM	37 µM	52.4 µM										
CNC(=O)N(CCC#N)CCCN(C(=O)N(C)C)c1ccccc1	> 100 µM	> 100 µM	> 100 µM	> 100 µM	> 100 µM	> 100 µM	> 100 µM	> 100 µM	> 100 µM	> 100 µM										
Cc1cc2nc(-c3c(N)ncc(C#N)c3-c3ccc(Cl)cc3)[nH]c2cc1C	> 100 µM	76 µM	5.78 µM	> 100 µM	> 100 µM	39.3 µM	> 100 µM	25.4 µM	> 100 µM	82.6 µM	30.4 µM	13.9 µM	2.07 µM	6.06 µM	9.34 µM	6.59 µM	37.6 µM	4.4 µM	31 µM	11.4 µM
O=C1/C(=C/c2ccc(O)cc2)CCC1CNc1ccccc1 (configuration not stated)	50.9 µM	28.4 µM	29.8 µM	27.7 µM	10.2 µM	23.7 µM	27.6 µM	33.3 µM	29.2 µM	30.6 µM										
O=[N+]([O-])c1cc(F)ccc1Sc1ccccc1	> 10 µM	> 10 µM	> 10 µM	> 10 µM	> 10 µM	> 10 µM	> 10 µM	> 10 µM	> 10 µM	> 10 µM										
COc1cccc(NC(=O)CC(=O)N2N=C(C)C(N=Nc3ccc(C(=O)O)cc3)C2=O)c1 (configuration not stated)		> 100 µM	> 100 µM	> 100 µM	> 100 µM	> 100 µM	> 100 µM	> 100 µM	> 100 µM	> 100 µM										
